The supplement of paper PMC10307832

Key:
Assay in all cases: relative viability (nuclei count vs DMSO), 5 days (fraction); higher = more cells survive
CAL-12T = test system: CAL-12T
Summary of the method: (§1)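 Each reported value is a median over duplicate plates. It expresses relative viability: treated-well nuclei count divided by vehicle-well nuclei count. Lung cancer cell lines in 1536-well plates were dosed by pin tool a day after seeding, alone with one drug or with a fixed anchor-drug dose plus five library-drug doses (not always all listed) in √10 steps, and nuclei were counted after 5 days.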

COR-L 105 = test system: COR-L 105
Summary of the method: as §1

H3255 = test system: H3255
Summary of the method: as §1

HARA = test system: HARA
Summary of the method: as §1

HCC-15 = test system: HCC-15
Summary of the method: as §1

HCC-366 = test system: HCC-366
Summary of the method: as §1

LC-2-ad = test system: LC-2-ad
Summary of the method: as §1

LU99A = test system: LU99A
Summary of the method: as §1

NCI-H1395 = test system: NCI-H1395
Summary of the method: as §1

NCI-H1666 = test system: NCI-H1666
Summary of the method: as §1

NCI-H1734 = test system: NCI-H1734
Summary of the method: as §1

NCI-H1944 = test system: NCI-H1944
Summary of the method: as §1

NCI-H1975 = test system: NCI-H1975
Summary of the method: as §1

NCI-H1993 = test system: NCI-H1993
Summary of the method: as §1

NCI-H2228 = test system: NCI-H2228
Summary of the method: as §1

NCI-H3122 = test system: NCI-H3122
Summary of the method: as §1

NCI-H520 = test system: NCI-H520
Summary of the method: as §1

NCI-H647 = test system: NCI-H647
Summary of the method: as §1

NCI-H661 = test system: NCI-H661
Summary of the method: as §1

NCI-H838 = test system: NCI-H838
Summary of the method: as §1

PC-14 = test system: PC-14
Summary of the method: as §1

PC-3 [JPC-3] = test system: PC-3 [JPC-3]
Summary of the method: as §1

SK-LU-1 = test system: SK-LU-1
Summary of the method: as §1

`O=C(O)CCCCC(CCSCc1ccccc1)SCc1ccccc1` (centres undefined) [CPI-613] + O=C(c1cc(Cc2n[nH]c(=O)c3ccccc23)ccc1F)N1CCN(C(=O)C2CC2)CC1 [Olaparib] (partner 8 µM) showed a relative viability (CAL-12T; first compound 5 µM) of 0.72, a relative viability (CAL-12T; first compound 15.81 µM) of 0.634 and a relative viability (CAL-12T; first compound 50 µM) of 0.627. The relative viability (CAL-12T; first compound 158.11 µM) was 0.473, the relative viability (CAL-12T; first compound 500 µM) was 0.488 and the relative viability (COR-L 105; first compound 5 µM) was 0.78. For the same compound, the relative viability (COR-L 105; first compound 15.81 µM) was 0.685, the relative viability (COR-L 105; first compound 50 µM) was 0.739 and the relative viability (COR-L 105; first compound 158.11 µM) was 0.268. It also gave a relative viability (COR-L 105; first compound 500 µM) of 0.28, a relative viability (H3255; first compound 5 µM) of 0.539 and a relative viability (H3255; first compound 15.81 µM) of 0.587. For the same compound, the relative viability (H3255; first compound 50 µM) was 0.557, the relative viability (H3255; first compound 158.11 µM) was 0.527 and the relative viability (H3255; first compound 500 µM) was 0.517. It also gave a relative viability (HARA; first compound 5 µM) of 0.509, a relative viability (HARA; first compound 15.81 µM) of 0.813 and a relative viability (HARA; first compound 50 µM) of 0.772. It also gave a relative viability (HARA; first compound 158.11 µM) of 0.25, a relative viability (HARA; first compound 500 µM) of 0.0476 and a relative viability (HCC-15; first compound 5 µM) of 0.743. For the same compound, the relative viability (HCC-15; first compound 15.81 µM) was 0.712, the relative viability (HCC-15; first compound 50 µM) was 0.612 and the relative viability (HCC-15; first compound 158.11 µM) was 0.178. The relative viability (HCC-15; first compound 500 µM) was 0.0853, the relative viability (HCC-366; first compound 5 µM) was 0.392 and the relative viability (HCC-366; first compound 15.81 µM) was 0.37. It also gave a relative viability (HCC-366; first compound 50 µM) of 0.41, a relative viability (HCC-366; first compound 158.11 µM) of 0.0554 and a relative viability (HCC-366; first compound 500 µM) of 0.0079. It also gave a relative viability (LC-2-ad; first compound 5 µM) of 0.629, a relative viability (LC-2-ad; first compound 15.81 µM) of 0.634 and a relative viability (LC-2-ad; first compound 50 µM) of 0.653. It also gave a relative viability (LC-2-ad; first compound 158.11 µM) of 0.214, a relative viability (LC-2-ad; first compound 500 µM) of 0.0817 and a relative viability (LU99A; first compound 5 µM) of 0.26. It also gave a relative viability (LU99A; first compound 15.81 µM) of 0.237, a relative viability (LU99A; first compound 50 µM) of 0.242 and a relative viability (LU99A; first compound 158.11 µM) of 0.127. It also gave a relative viability (LU99A; first compound 500 µM) of 0.161, a relative viability (NCI-H1395; first compound 5 µM) of 0.473 and a relative viability (NCI-H1395; first compound 15.81 µM) of 0.479. The relative viability (NCI-H1395; first compound 50 µM) was 0.469, the relative viability (NCI-H1395; first compound 158.11 µM) was 0.436 and the relative viability (NCI-H1395; first compound 500 µM) was 0.266. For the same compound, the relative viability (NCI-H1666; first compound 5 µM) was 0.749, the relative viability (NCI-H1666; first compound 15.81 µM) was 0.772 and the relative viability (NCI-H1666; first compound 50 µM) was 0.865. The relative viability (NCI-H1666; first compound 158.11 µM) was 0.304, the relative viability (NCI-H1666; first compound 500 µM) was 0.396 and the relative viability (NCI-H1734; first compound 5 µM) was 0.584. It also gave a relative viability (NCI-H1734; first compound 15.81 µM) of 0.596, a relative viability (NCI-H1734; first compound 50 µM) of 0.516 and a relative viability (NCI-H1734; first compound 158.11 µM) of 0.373. The relative viability (NCI-H1734; first compound 500 µM) was 0.173, the relative viability (NCI-H1944; first compound 5 µM) was 0.404 and the relative viability (NCI-H1944; first compound 15.81 µM) was 0.401. It also gave a relative viability (NCI-H1944; first compound 50 µM) of 0.491, a relative viability (NCI-H1944; first compound 158.11 µM) of 0.288 and a relative viability (NCI-H1944; first compound 500 µM) of 0.383. For the same compound, the relative viability (NCI-H1975; first compound 5 µM) was 0.745, the relative viability (NCI-H1975; first compound 15.81 µM) was 0.758 and the relative viability (NCI-H1975; first compound 50 µM) was 0.85. It also gave a relative viability (NCI-H1975; first compound 158.11 µM) of 0.563, a relative viability (NCI-H1975; first compound 500 µM) of 0.099 and a relative viability (NCI-H1993; first compound 5 µM) of 1.15. The relative viability (NCI-H1993; first compound 15.81 µM) was 0.918, the relative viability (NCI-H1993; first compound 50 µM) was 0.908 and the relative viability (NCI-H1993; first compound 158.11 µM) was 0.6. For the same compound, the relative viability (NCI-H1993; first compound 500 µM) was 0.421, the relative viability (NCI-H2228; first compound 5 µM) was 0.532 and the relative viability (NCI-H2228; first compound 15.81 µM) was 0.411. For the same compound, the relative viability (NCI-H2228; first compound 50 µM) was 0.634, the relative viability (NCI-H2228; first compound 158.11 µM) was 0.628 and the relative viability (NCI-H2228; first compound 500 µM) was 0.185. It also gave a relative viability (NCI-H3122; first compound 5 µM) of 0.672, a relative viability (NCI-H3122; first compound 15.81 µM) of 0.589 and a relative viability (NCI-H3122; first compound 50 µM) of 0.574. For the same compound, the relative viability (NCI-H3122; first compound 158.11 µM) was 0.442, the relative viability (NCI-H3122; first compound 500 µM) was 0.609 and the relative viability (NCI-H520; first compound 5 µM) was 0.323. The relative viability (NCI-H520; first compound 15.81 µM) was 0.371, the relative viability (NCI-H520; first compound 50 µM) was 0.329 and the relative viability (NCI-H520; first compound 158.11 µM) was 0.136. The relative viability (NCI-H520; first compound 500 µM) was 0.113, the relative viability (NCI-H647; first compound 5 µM) was 0.426 and the relative viability (NCI-H647; first compound 15.81 µM) was 0.528. For the same compound, the relative viability (NCI-H647; first compound 50 µM) was 0.331, the relative viability (NCI-H647; first compound 158.11 µM) was 0.0348 and the relative viability (NCI-H647; first compound 500 µM) was 0.0133. It also gave a relative viability (NCI-H661; first compound 5 µM) of 0.714, a relative viability (NCI-H661; first compound 15.81 µM) of 0.726 and a relative viability (NCI-H661; first compound 50 µM) of 0.718. It also gave a relative viability (NCI-H661; first compound 158.11 µM) of 0.399, a relative viability (NCI-H661; first compound 500 µM) of 0.153 and a relative viability (NCI-H838; first compound 5 µM) of 0.79. For the same compound, the relative viability (NCI-H838; first compound 15.81 µM) was 0.705, the relative viability (NCI-H838; first compound 50 µM) was 0.721 and the relative viability (NCI-H838; first compound 158.11 µM) was 0.278. It also gave a relative viability (NCI-H838; first compound 500 µM) of 0.115, a relative viability (PC-14; first compound 5 µM) of 0.283 and a relative viability (PC-14; first compound 15.81 µM) of 0.231. For the same compound, the relative viability (PC-14; first compound 50 µM) was 0.262, the relative viability (PC-14; first compound 158.11 µM) was 0.078 and the relative viability (PC-14; first compound 500 µM) was 0.0073. It also gave a relative viability (PC-3 [JPC-3]; first compound 5 µM) of 1.11, a relative viability (PC-3 [JPC-3]; first compound 50 µM) of 0.953 and a relative viability (PC-3 [JPC-3]; first compound 158.11 µM) of 0.32. For the same compound, the relative viability (PC-3 [JPC-3]; first compound 500 µM) was 0.1, the relative viability (SK-LU-1; first compound 5 µM) was 0.416 and the relative viability (SK-LU-1; first compound 15.81 µM) was 0.392. For the same compound, the relative viability (SK-LU-1; first compound 50 µM) was 0.427, the relative viability (SK-LU-1; first compound 158.11 µM) was 0.352 and the relative viability (SK-LU-1; first compound 500 µM) was 0.238.
